This passage reports IC50 results from patent US9656988B2 (Pharmacyclics LLC, priority 2013, dated 2017).

Like-named read-outs stand apart in the source and are kept apart here. A value given as a limit tells only on which side of the number the result lay.

The assay has as its target BTK (Homo sapiens (Human), UniProt Q06187). The experiment in a line: Btk in vitro inhibitory activity (one of Method A TR-FRET, Method B electrophoretic mobility shift, Method C radiometric filter binding). The class given is biochemical. (In general: Mobility shift assays separate free from complexed probe on a gel.)
[1] abbreviates: determined using one of the methods of Example 355a, 355b and 355c, read-out: BTK IC50.

Chain of BTK (Q06187 whole entry): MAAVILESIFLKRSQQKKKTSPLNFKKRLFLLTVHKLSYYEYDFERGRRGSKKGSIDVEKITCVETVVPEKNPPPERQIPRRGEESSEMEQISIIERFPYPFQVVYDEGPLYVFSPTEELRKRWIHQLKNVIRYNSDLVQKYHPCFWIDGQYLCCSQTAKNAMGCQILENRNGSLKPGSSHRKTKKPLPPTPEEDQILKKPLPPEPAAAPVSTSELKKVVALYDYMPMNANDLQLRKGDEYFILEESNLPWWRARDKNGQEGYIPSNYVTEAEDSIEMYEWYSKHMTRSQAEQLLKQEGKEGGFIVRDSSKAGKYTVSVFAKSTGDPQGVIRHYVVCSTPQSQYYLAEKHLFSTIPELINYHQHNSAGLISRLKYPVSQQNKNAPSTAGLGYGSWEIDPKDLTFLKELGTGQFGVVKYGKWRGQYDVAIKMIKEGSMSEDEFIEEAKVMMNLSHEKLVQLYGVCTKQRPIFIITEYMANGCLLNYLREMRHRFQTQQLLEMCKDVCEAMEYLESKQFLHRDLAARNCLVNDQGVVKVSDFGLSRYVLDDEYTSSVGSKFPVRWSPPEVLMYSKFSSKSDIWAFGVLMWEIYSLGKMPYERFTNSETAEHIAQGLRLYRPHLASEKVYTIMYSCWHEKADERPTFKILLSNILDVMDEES

The term IC50 denotes the concentration at which inhibition is half-maximal. `COc1ccc(C(=O)N[C@@H]2CCCN(c3cnc(C(N)=O)c(Nc4ccc(N5CCOCC5)cc4)n3)C2)cc1` [Example 123, (R)-5-(3-(4-methoxybenzamido)piperidin-1-yl)-3-(4-morpholinophenylamino)pyrazine-2-carboxamide]: the IC50 under setting [1] is under 10 nM.

As to `NC(=O)c1nnc(N2CCC[C@@H](NC(=O)C3CC3)C2)nc1Nc1ccc(C(=O)N2CCOCC2)cc1` [Example 25, (R)-3-(3-(cyclopropanecarboxamido)piperidin-1-yl)-5-(4-(morpholine-4-carbonyl)phenylamino)-1,2,4-triazine-6-carboxamide], the IC50 under setting [1] is 10 to 100 nM.

Regarding `COc1ccc(C(=O)N[C@@H]2CCCN(c3cnc(C(N)=O)c(Nc4ccc(C5CCN(CC#N)CC5)cc4)n3)C2)cc1` [Example 136, (R)-3-(4-(1-(cyanomethyl)piperidin-4-yl)phenylamino)-5-(3-(4-methoxybenzamido)piperidin-1-yl)pyrazine-2-carboxamide], the IC50 reads like this: under setting [1], 10 to 100 nM; (read-out: Btk (IC50)) 10 to 100 nM.

On to `NC(=O)c1nnc(N2CCC[C@@H](NC(=O)c3ccc4ccccc4n3)C2)nc1Nc1ccc(C(=O)N2CCOCC2)cc1` [Example 84, (R)—N-(1-(6-carbamoyl-5-(4-(morpholine-4-carbonyl)phenylamino)-1,2,4-triazin-3-yl)piperidin-3-yl)quinoline-2-carboxamide], for which the IC50 runs as follows: (Btk (IC50)) 10 to 100 nM; under setting [1], 10 to 100 nM.

For `NC(=O)c1nnc(N2CCC[C@@H](NC(=O)N3CCOCC3)C2)nc1Nc1ccc(C(=O)N2CCOCC2)cc1` [Example 38, (R)—N-(1-(6-carbamoyl-5-(4-(morpholine-4-carbonyl)phenylamino)-1,2,4-triazin-3-yl)piperidin-3-yl)morpholine-4-carboxamide], the IC50 under setting [1] lay in the range of 10 to 100 nM.

Regarding `CCC(=O)N1CCC(c2ccc(Nc3nc(N4CCC[C@@H](NC(=O)N(C)C)C4)cnc3C(N)=O)cc2)CC1` [Example 152, (R)-5-(3-(3,3-dimethylureido)piperidin-1-yl)-3-(4-(1-propionylpiperidin-4-yl)phenylamino)pyrazine-2-carboxamide], the IC50 under setting [1] was under 10 nM and the IC50 (read-out: Btk (IC50)) is under 10 nM.

On to `COc1ccc(NC(=O)N[C@@H]2CCCN(c3nnc(C(N)=O)c(Nc4ccc(C(=O)N5CCOCC5)cc4)n3)C2)cc1` [Example 80, (R)-3-(3-(3-(4-methoxyphenyl)ureido)piperidin-1-yl)-5-(4-(morpholine-4-carbonyl)phenylamino)-1,2,4-triazine-6-carboxamide], for which the IC50 by setting is: (Btk (IC50)) 10 to 100 nM; under setting [1], 10 to 100 nM.

Regarding `CC(C)(C)c1ccc(C(=O)N[C@@H]2CCN(c3nnc(C(N)=O)c(Nc4ccc(C(=O)N5CCOCC5)cc4)n3)C2)cc1` [Example 49, (R)-3-(3-(4-tert-butylbenzamido)pyrrolidin-1-yl)-5-(4-(morpholine-4-carbonyl)phenylamino)-1,2,4-triazine-6-carboxamide], the IC50 under setting [1] lay within 100 to 1000 nM.

As for `NC(=O)c1ncc(N2CCC[C@@H](NC(=O)c3ccc(-c4ccccc4)nc3)C2)nc1Nc1ccc(C2CCN(C3CC3)CC2)cc1` [Example 319, (R)-3-(4-(1-cyclopropylpiperidin-4-yl)phenylamino)-5-(3-(6-phenylnicotinamido)piperidin-1-yl)pyrazine-2-carboxamide], under setting [1], the IC50 is under 10 nM.

Turning to `N#CCC(=O)N1CCC(c2ccc(Nc3nc(N4CCC[C@@H](NC(=O)N5CCCCC5)C4)nnc3C(N)=O)cc2)CC1` [Example 341, (R)-5-(4-(1-(2-cyanoacetyl)piperidin-4-yl)phenylamino)-3-(3-(piperidine-1-carboxamido)piperidin-1-yl)-1,2,4-triazine-6-carboxamide], the IC50 is 10 to 100 nM. Further, the IC50 under setting [1] was under 10 nM.

Take `CC(C)(C)OC(=O)N1CC[C@@H](Nc2nnc(C(N)=O)c(Nc3ccc(C(=O)N4CCOCC4)cc3)n2)C1` [Example 68, (R)-tert-butyl 3-(6-carbamoyl-5-(4-(morpholine-4-carbonyl)phenylamino)-1,2,4-triazin-3-ylamino)pyrrolidine-1-carboxylate]: under setting [1], the IC50 lay within 100 to 1000 nM.

`C[C@@H]1[C@H](N2CCCN(C)C2=O)CCCN1c1cnc(C(N)=O)c(Nc2ccc(C3CCN(C4CCCC4)CC3)cc2)n1` [Example 281, 3-(4-(1-cyclopentylpiperidin-4-yl)phenylamino)-5-((2R,3R)-2-methyl-3-(3-methyl-2-oxotetrahydropyrimidin-1(2H)-yl)piperidin-1-yl)pyrazine-2-carboxamide]: the IC50 (Btk (IC50)) is under 10 nM and the IC50 under setting [1] is under 10 nM.

Regarding `CCOc1ccc(C(=O)N[C@@H]2CCCN(c3nnc(C(N)=O)c(Nc4ccc(C(=N)N(C)C)cc4)n3)C2)cc1` [Example 342, (R)-5-(4-(N,N-dimethylcarbamimidoyl)phenylamino)-3-(3-(4-ethoxybenzamido)piperidin-1-yl)-1,2,4-triazine-6-carboxamide], the IC50 fell in the range of 10 to 100 nM under setting [1] and 10 to 100 nM (read-out: Btk (IC50)).

Consider `CN(C(=O)N[C@@H]1CCCN(c2cnc(C(N)=O)c(NC3CCOCC3)n2)C1)c1cc(Cl)cc(C(F)(F)F)c1` [Example 353, (R)-5-(3-(3-(3-chloro-5-(trifluoromethyl)phenyl)-3-methylureido)piperidin-1-yl)-3-(tetrahydro-2H-pyran-4-ylamino)pyrazine-2-carboxamide], for which, under setting [1], the IC50 fell in the range of 1000 to 10000 nM.

On to `CCN(C)C(=O)N[C@@H]1CCCN(c2cnc(C(N)=O)c(Nc3ccc(C4CCN(C)CC4)cc3)n2)C1` [Example 166, (R)-5-(3-(3-ethyl-3-methylureido)piperidin-1-yl)-3-(4-(1-methylpiperidin-4-yl)phenylamino)pyrazine-2-carboxamide], for which the IC50 under setting [1] is under 10 nM.

Consider `CN1CCN([C@@H]2CCCN(c3cnc(C(N)=O)c(Nc4ccc(C5(C#N)CCN(C6CCC6)CC5)cc4)n3)C2)C1=O` [Example 273, (R)-3-(4-(4-cyano-1-cyclobutylpiperidin-4-yl)phenylamino)-5-(3-(3-methyl-2-oxoimidazolidin-1-yl)piperidin-1-yl)pyrazine-2-carboxamide], for which the IC50 is, setting by setting: under setting [1], under 10 nM; (read-out: Btk (IC50)) under 10 nM.

For the compound `CN(C)C(=O)N[C@@H]1CCCN(c2cnc(C(N)=O)c(Nc3ccc(C4CCN(C(=O)CC#N)CC4)cc3)n2)C1` [Example 153, (R)-3-(4-(1-(2-cyanoacetyl)piperidin-4-yl)phenylamino)-5-(3-(3,3-dimethylureido)piperidin-1-yl)pyrazine-2-carboxamide], the IC50 by setting is: under setting [1], under 10 nM; (read-out: Btk (IC50)) under 10 nM.

On to `C[C@@H]1[C@H](NC(=O)N(C)C)CCCN1c1cnc(C(N)=O)c(Nc2ccc(C3(C(N)=O)CCCC3)cc2)n1` [Example 249, 3-(4-(1-carbamoylcyclopentyl)phenylamino)-5-((2R,3R)-3-(3,3-dimethylureido)-2-methylpiperidin-1-yl)pyrazine-2-carboxamide], for which the IC50 under setting [1] was under 10 nM and the IC50 (read-out: Btk (IC50)) was under 10 nM.

For `CN(C)C(=O)N[C@@H]1CCCN(c2cnc(C(N)=O)c(Nc3ccc(C(=O)Nc4ccccn4)cc3)n2)C1` [Example 196, (R)-5-(3-(3,3-dimethylureido)piperidin-1-yl)-3-(4-(pyridin-2-ylcarbamoyl)phenylamino)pyrazine-2-carboxamide], under setting [1], the IC50 is 10 to 100 nM.

With `NC(=O)c1nnc(N2CCC[C@@H](NC(=O)N3CCCCC3)C2)nc1Nc1ccc(C2CCN(C=O)CC2)cc1` [Example 337, (R)-5-(4-(1-formylpiperidin-4-yl)phenylamino)-3-(3-(piperidine-1-carboxamido)piperidin-1-yl)-1,2,4-triazine-6-carboxamide], the IC50 under setting [1] was under 10 nM and the IC50 (read-out: Btk (IC50)) is under 10 nM.

`CCN(CC)C(=O)N[C@@H]1CCCN(c2cnc(C(N)=O)c(Nc3ccc(C4CCN(C)CC4)cc3)n2)C1` [Example 167, (R)-5-(3-(3,3-diethylureido)piperidin-1-yl)-3-(4-(1-methylpiperidin-4-yl)phenylamino)pyrazine-2-carboxamide]: the IC50 is under 10 nM under setting [1] and under 10 nM (read-out: Btk (IC50)).

`C[C@H]1[C@H](N)CCCN1c1cnc(C(N)=O)c(Nc2ccc(C3CCN(C4CCCC4)CC3)cc2)n1` [Example 231, 5-((2S,3R)-3-amino-2-methylpiperidin-1-yl)-3-(4-(1-cyclopentylpiperidin-4-yl)phenylamino)pyrazine-2-carboxamide]: the IC50 (Btk (IC50)) fell in the range of 100 to 1000 nM and the IC50 under setting [1] lay in the range of 100 to 1000 nM.

`CN(C/C=C/C(=O)N1CCC[C@@H](Nc2nnc(C(N)=O)c(Nc3ccc(C(=O)N4CCOCC4)cc3)n2)C1)C1CC1` [Example 67, (R,E)-3-(1-(4-(cyclopropyl(methyl)amino)but-2-enoyl)piperidin-3-ylamino)-5-(4-(morpholine-4-carbonyl)phenylamino)-1,2,4-triazine-6-carboxamide]: the IC50 under setting [1] is under 10 nM.

Regarding `CCOc1ccc(C(=O)N[C@@H]2CCCN(c3cnc(C(N)=O)c(Nc4ccc(C5CCN(C)CC5)cc4)n3)C2)cc1` [Example 169, (R)-5-(3-(4-ethoxybenzamido)piperidin-1-yl)-3-(4-(1-methylpiperidin-4-yl)phenylamino)pyrazine-2-carboxamide], under setting [1], the IC50 was under 10 nM.

Turning to `NC(=O)c1nnc(N2CCC[C@@H](NC(=O)c3cccnc3)C2)nc1Nc1ccc(C(=O)N2CCOCC2)cc1` [Example 13, (R)-5-(4-(morpholine-4-carbonyl)phenylamino)-3-(3-(nicotinamido)piperidin-1-yl)-1,2,4-triazine-6-carboxamide], the IC50 under setting [1] lay in the range of 10 to 100 nM.

As for `NC(=O)c1ncc(N2CCC[C@@H](NC(=O)c3cncc(F)c3)C2)nc1Nc1ccc(C2CCN(C3CCCC3)CC2)cc1` [Example 305, (R)-3-(4-(1-cyclopentylpiperidin-4-yl)phenylamino)-5-(3-(5-fluoronicotinamido)piperidin-1-yl)pyrazine-2-carboxamide], the IC50 runs as follows: under setting [1], under 10 nM; (read-out: Btk (IC50)) under 10 nM.

Take `NC(=O)c1nnc(N2CCC[C@@H](N3CCCC3=O)C2)nc1Nc1ccc(C(=O)N2CCOCC2)cc1` [Example 44, (R)-5-(4-(morpholine-4-carbonyl)phenylamino)-3-(3-(2-oxopyrrolidin-1-yl)piperidin-1-yl)-1,2,4-triazine-6-carboxamide]: the IC50 under setting [1] was in the range of 10 to 100 nM.
